Tested on: Mus musculus
Conditions: oral
[1] = developmental, duration: 20 days, gavage, F, ICR, Developmental: Decreases in pup body weight / delays in eye opening, vaginal opening, and first estrous / decreases in ovarian follicles…
[2] = developmental, duration: 13 days, gavage, F, CD1, Developmental: 12.5% decrease in birth weight and delayed eye opening at ?350 mg/kg/day / increased pup mortality (PND 0-3) and decreased …
[3] = developmental, duration: 13 days, gavage, F, CD1, Developmental: Increase in stillborn pups and 12.5% decrease in birth weight

In the case of `O=S(=O)(O)C(F)(F)C(F)(F)C(F)(F)C(F)(F)F` [Perfluorobutanesulfonic acid], the NOAEL (developmental, duration: 20 days, gavage, F, ICR) is reported as 500 mg/kg-day, the LOAEL [1] is reported as 200 mg/kg-day and the NOAEL [1] is reported as 50 mg/kg-day. The NOAEL (subchronic, duration: 6 weeks, diet, M, Hepatic: Decreased plasma triglyceride levels) was 30 mg/kg-day.

`O=C(O)C(F)(F)C(F)(F)C(F)(F)C(F)(F)C(F)(F)F` [Perfluorohexanoic acid] was tested, and the LOAEL [2] was 350 mg/kg-day, the NOAEL [2] was 100 mg/kg-day and the LOAEL [3] was 175 mg/kg-day. The NOAEL [3] was 35 mg/kg-day.

From EPA's ToxValDB 9.5
